# Results as given in patent US20130029928A1 (priority 2010, published 2013).
# Where two headings read alike, the source gives them in different places.
# Experiment: Phase I study CXR1002-001: plasma pharmacokinetics (LC-MS/MS)
# Type: in vivo, human
# Details: for concentration at 528 hr / concentration at 528 h: Time 528 hr (Day 23); for concentration at 672 hr / concentration at 672 h: Time 672 hr (Day 29); for concentration at 696 hr / concentration at 696 h: Time 696 hr (Day 30); for concentration at 840 hr / concentration at 840 h: Time 840 hr (Day 36); for concentration at 864 hr / concentration at 864 h: Time 864 hr (Day 37); for concentration at 24 hr / concentration at 24 h: Time 24 hr (Day 2); for concentration at 168 hr / concentration at 168 h: Time 168 hr (Day 8); for concentration at 336 hr / concentration at 336 h: Time 336 hr (Day 15); for concentration at 360 hr / concentration at 360 h: Time 360 hr (Day 16)
# Description: PK samples, PD (fasting) samples, blood glucose, and blood triglyceride samples, were taken over a 6-week period.
# Dose limiting toxicity (DLT) will be based on the toxicity assessments over the first 3-week period of the repeat dosing schedule. PK samples (single blood sample) were taken on the following basis: • Every 6 weeks during the repeat dosing phase • If dosing is interrupted or stopped, samples will be taken at intervals according to patient convenience • PK sampling for safety evaluation may take place at any time, as clinically indicated
# Plasma samples were collected after the single 50 mg dose at the following timepoints: Pre-dose, and then 0.25, 0.5, 0.75, 1, 1.5, 2, 3, 4, 6, 24, 48, and 72 hours after administration and then once weekly at weeks 2, 3, 4, 5, and 6 (days 8, 15, 22, 29, and 36). For patients treated with the weekly repeat dose, plasma samples were collected at the following timepoints: Pre-dose and then 2, 3, 4 and 24 hours after administration for a total of 6 weeks. Thereafter a single sample was collected every 6 weeks for monitoring of exposure during long term treatment. Plasma samples were processed at site and stored at −80° C. prior to batch shipment to the analytical laboratory.
# [1] = human, plasma, po, 1000 mg, Patient 041, 1000 mg weekly oral dose, read-out: Concentration (plasma level)
# [2] = human, plasma, po, 1000 mg, Patient 042, 1000 mg weekly oral dose, read-out: Concentration (plasma level)
# [3] = human, plasma, po, 1200 mg, Patient 036, 1200 mg weekly oral dose, read-out: Concentration (plasma level)
# [4] = human, plasma, po, 1200 mg, Patient 037, 1200 mg weekly oral dose, read-out: Concentration (plasma level)
# [5] = human, plasma, po, 1200 mg, Patient 038, 1200 mg weekly oral dose, read-out: Concentration (plasma level)
compound,measurement,setting,value
O=C(O)C(F)(F)C(F)(F)C(F)(F)C(F)(F)C(F)(F)C(F)(F)C(F)(F)F [CXR1002],concentration at 528 hr,[1],703 µM
same,concentration at 672 hr,[1],670 µM
same,concentration at 674 hr,[1],546 µM
same,concentration at 675 hr,[1],740 µM
same,concentration at 676 hr,"human, plasma, po, 1000 mg, Patient 041, 1000 mg weekly oral dose, Time 676 hr, read-out: Concentration (plasma level)",802 µM
same,concentration at 696 hr,[1],786 µM
same,concentration at 840 hr,[1],715 µM
same,concentration at 842 hr,[1],738 µM
same,concentration at 843 hr,"human, plasma, po, 1000 mg, Patient 041, 1000 mg weekly oral dose, Time 843 hr, read-out: Concentration (plasma level)",1010 µM
same,concentration at 864 hr,[1],1210 µM
same,concentration at 2 hr,[2],272 µM
same,concentration at 3 hr,[2],359 µM
same,concentration at 4 hr,[2],281 µM
same,concentration at 24 hr,[2],239 µM
same,concentration at 168 hr,[2],251 µM
same,concentration at 170 hr,"human, plasma, po, 1000 mg, Patient 042, 1000 mg weekly oral dose, Time 170 hr, read-out: Concentration (plasma level)",391 µM
same,concentration at 171 hr,"human, plasma, po, 1000 mg, Patient 042, 1000 mg weekly oral dose, Time 171 hr, read-out: Concentration (plasma level)",461 µM
same,concentration at 172 hr,"human, plasma, po, 1000 mg, Patient 042, 1000 mg weekly oral dose, Time 172 hr, read-out: Concentration (plasma level)",436 µM
same,concentration at 192 hr,"human, plasma, po, 1000 mg, Patient 042, 1000 mg weekly oral dose, Time 192 hr (Day 9), read-out: Concentration (plasma level)",502 µM
same,concentration at 336 hr,[2],586 µM
same,concentration at 338 hr,[2],645 µM
same,concentration at 339 hr,[2],675 µM
same,concentration at 340 hr,[2],636 µM
same,concentration at 360 hr,[2],651 µM
same,concentration at 504 hr,"human, plasma, po, 1000 mg, Patient 042, 1000 mg weekly oral dose, Time 504 hr (Day 22), read-out: Concentration (plasma level)",765 µM
same,concentration at 506 hr,"human, plasma, po, 1000 mg, Patient 042, 1000 mg weekly oral dose, Time 506 hr, read-out: Concentration (plasma level)",872 µM
same,concentration at 507 hr,"human, plasma, po, 1000 mg, Patient 042, 1000 mg weekly oral dose, Time 507 hr, read-out: Concentration (plasma level)",952 µM
same,concentration at 508 hr,"human, plasma, po, 1000 mg, Patient 042, 1000 mg weekly oral dose, Time 508 hr, read-out: Concentration (plasma level)",987 µM
same,concentration at 528 hr,[2],1230 µM
same,concentration at 672 hr,[2],1040 µM
same,concentration at 674 hr,[2],1180 µM
same,concentration at 675 hr,[2],1190 µM
same,concentration at 696 hr,[2],1280 µM
same,concentration at 840 hr,[2],1250 µM
same,concentration at 842 hr,[2],1140 µM
same,concentration at 843 hr,"human, plasma, po, 1000 mg, Patient 042, 1000 mg weekly oral dose, Time 843 hr, read-out: Concentration (plasma level)",1180 µM
same,concentration at 844 hr,"human, plasma, po, 1000 mg, Patient 042, 1000 mg weekly oral dose, Time 844 hr, read-out: Concentration (plasma level)",1160 µM
same,concentration at 864 hr,[2],1250 µM
same,concentration at 2 hr,[3],443 µM
same,concentration at 3 hr,[3],431 µM
same,concentration at 4 hr,[3],361 µM
same,concentration at 24 hr,[3],708 µM
same,concentration at 168 hr,[3],286 µM
same,concentration at 170 h,"human, plasma, po, 1200 mg, Patient 036, 1200 mg weekly oral dose, Time 170 hr, read-out: Concentration (plasma level)",680 µM
same,concentration at 171 h,"human, plasma, po, 1200 mg, Patient 036, 1200 mg weekly oral dose, Time 171 hr, read-out: Concentration (plasma level)",678 µM
same,concentration at 172 h,"human, plasma, po, 1200 mg, Patient 036, 1200 mg weekly oral dose, Time 172 hr, read-out: Concentration (plasma level)",665 µM
same,concentration at 192 h,"human, plasma, po, 1200 mg, Patient 036, 1200 mg weekly oral dose, Time 192 hr (Day 9), read-out: Concentration (plasma level)",295 µM
same,concentration at 336 hr,[3],557 µM
same,concentration at 338 hr,[3],840 µM
same,concentration at 339 hr,[3],866 µM
same,concentration at 340 hr,[3],930 µM
same,concentration at 360 hr,[3],657 µM
same,concentration at 504 h,"human, plasma, po, 1200 mg, Patient 036, 1200 mg weekly oral dose, Time 504 hr (Day 22), read-out: Concentration (plasma level)",969 µM
same,concentration at 506 h,"human, plasma, po, 1200 mg, Patient 036, 1200 mg weekly oral dose, Time 506 hr, read-out: Concentration (plasma level)",1140 µM
same,concentration at 507 h,"human, plasma, po, 1200 mg, Patient 036, 1200 mg weekly oral dose, Time 507 hr, read-out: Concentration (plasma level)",1130 µM
same,concentration at 508 h,"human, plasma, po, 1200 mg, Patient 036, 1200 mg weekly oral dose, Time 508 hr, read-out: Concentration (plasma level)",1120 µM
same,concentration at 840 h,[3],948 µM
same,concentration at 842 h,[3],1250 µM
same,concentration at 844 h,"human, plasma, po, 1200 mg, Patient 036, 1200 mg weekly oral dose, Time 844 hr, read-out: Concentration (plasma level)",1230 µM
same,concentration at 864 h,[3],1060 µM
same,concentration at 2 h,[4],256 µM
same,concentration at 3 h,[4],302 µM
same,concentration at 4 h,[4],278 µM
same,concentration at 24 h,[4],418 µM
same,concentration at 168 h,[4],422 µM
same,concentration at 170 h,"human, plasma, po, 1200 mg, Patient 037, 1200 mg weekly oral dose, Time 170 hr, read-out: Concentration (plasma level)",634 µM
same,concentration at 171 h,"human, plasma, po, 1200 mg, Patient 037, 1200 mg weekly oral dose, Time 171 hr, read-out: Concentration (plasma level)",660 µM
same,concentration at 172 h,"human, plasma, po, 1200 mg, Patient 037, 1200 mg weekly oral dose, Time 172 hr, read-out: Concentration (plasma level)",712 µM
same,concentration at 192 h,"human, plasma, po, 1200 mg, Patient 037, 1200 mg weekly oral dose, Time 192 hr (Day 9), read-out: Concentration (plasma level)",841 µM
same,concentration at 336 h,[4],780 µM
same,concentration at 338 h,[4],1050 µM
same,concentration at 339 h,[4],1040 µM
same,concentration at 340 h,[4],1030 µM
same,concentration at 360 h,[4],1140 µM
same,concentration at 504 h,"human, plasma, po, 1200 mg, Patient 037, 1200 mg weekly oral dose, Time 504 hr (Day 22), read-out: Concentration (plasma level)",1100 µM
same,concentration at 506 h,"human, plasma, po, 1200 mg, Patient 037, 1200 mg weekly oral dose, Time 506 hr, read-out: Concentration (plasma level)",1200 µM
same,concentration at 507 h,"human, plasma, po, 1200 mg, Patient 037, 1200 mg weekly oral dose, Time 507 hr, read-out: Concentration (plasma level)",1220 µM
same,concentration at 508 h,"human, plasma, po, 1200 mg, Patient 037, 1200 mg weekly oral dose, Time 508 hr, read-out: Concentration (plasma level)",1390 µM
same,concentration at 528 h,[4],1390 µM
same,concentration at 672 h,[4],1320 µM
same,concentration at 674 h,[4],1460 µM
same,concentration at 675 h,[4],1460 µM
same,concentration at 676 h,"human, plasma, po, 1200 mg, Patient 037, 1200 mg weekly oral dose, Time 676 hr, read-out: Concentration (plasma level)",1450 µM
same,concentration at 696 h,[4],1530 µM
same,concentration at 2 h,[5],313 µM
same,concentration at 3 h,[5],314 µM
same,concentration at 4 h,[5],298 µM
same,concentration at 24 h,[5],242 µM
same,concentration at 168 h,[5],268 µM
same,concentration at 170 h,"human, plasma, po, 1200 mg, Patient 038, 1200 mg weekly oral dose, Time 170 hr, read-out: Concentration (plasma level)",502 µM
same,concentration at 171 h,"human, plasma, po, 1200 mg, Patient 038, 1200 mg weekly oral dose, Time 171 hr, read-out: Concentration (plasma level)",481 µM
same,concentration at 172 h,"human, plasma, po, 1200 mg, Patient 038, 1200 mg weekly oral dose, Time 172 hr, read-out: Concentration (plasma level)",538 µM
same,concentration at 192 h,"human, plasma, po, 1200 mg, Patient 038, 1200 mg weekly oral dose, Time 192 hr (Day 9), read-out: Concentration (plasma level)",493 µM
same,concentration at 336 h,[5],462 µM
same,concentration at 338 h,[5],808 µM
same,concentration at 339 h,[5],682 µM
same,concentration at 340 h,[5],672 µM
same,concentration at 360 h,[5],749 µM
same,concentration at 504 h,"human, plasma, po, 1200 mg, Patient 038, 1200 mg weekly oral dose, Time 504 hr (Day 22), read-out: Concentration (plasma level)",566 µM
same,concentration at 506 h,"human, plasma, po, 1200 mg, Patient 038, 1200 mg weekly oral dose, Time 506 hr, read-out: Concentration (plasma level)",658 µM
same,concentration at 507 h,"human, plasma, po, 1200 mg, Patient 038, 1200 mg weekly oral dose, Time 507 hr, read-out: Concentration (plasma level)",788 µM
same,concentration at 508 h,"human, plasma, po, 1200 mg, Patient 038, 1200 mg weekly oral dose, Time 508 hr, read-out: Concentration (plasma level)",699 µM
same,concentration at 528 h,[5],746 µM
same,concentration at 672 h,[5],682 µM
same,concentration at 674 h,[5],932 µM
same,concentration at 675 h,[5],885 µM
same,concentration at 676 h,"human, plasma, po, 1200 mg, Patient 038, 1200 mg weekly oral dose, Time 676 hr, read-out: Concentration (plasma level)",708 µM
same,concentration at 696 h,[5],802 µM
same,concentration at 840 h,[5],687 µM
same,concentration at 842 h,[5],895 µM
same,concentration at 843 h,"human, plasma, po, 1200 mg, Patient 038, 1200 mg weekly oral dose, Time 843 hr, read-out: Concentration (plasma level)",955 µM
same,concentration at 844 h,"human, plasma, po, 1200 mg, Patient 038, 1200 mg weekly oral dose, Time 844 hr, read-out: Concentration (plasma level)",914 µM
same,concentration at 864 h,[5],958 µM
same,gender difference in exposure,in vivo,no gender difference
same,accumulation,weekly dose,accumulates
same,maximal blood level reached,weekly repeat dose (Pharmacokinetic Summary),617 µM
